Twelve compounds from patent publication US11643424B2, “Cardiopathy-reducing phosphodiester lipids” (Signpath Pharma, Inc., priority 2018, dated 2023) can be followed below.

Where two headings read alike, the source gives them in different places.

Series [1] deals with Moxifloxacin-induced QTc prolongation. Description: Cardiac response testing: protection against Moxifloxacin-induced QTc prolongation (ECG telemetry). In kind it is in vivo, adult male Hartley guinea pigs. The following applies: for inhibition in vivo at 2 mg/kg: Cavia porcellus, po; for Maximal prolongation: QTc; for Onset of protection / Time of maximal protection / Duration of complete protection: single oral 2 mg/kg test compound with oral moxifloxacin; for Duration of complete protection: 6 h recording. The method, then:
Efficacy evaluation of the compounds of the present invention involved ECG measurements of adult male Hartley guinea pigs wherein PR, QRS, QT, QTc, JT, RR were recorded. In typical experiments, subcutaneous Kaha TR50B bio potential telemeters were surgically implanted in adult male Hartley guinea pigs weighing 300 to 350 g at enrollment. One lead was sutured to the apex of the heart, while another was sutured to the side of the aorta. The animals were allowed to recover from surgery for 5 days prior to being returned to the testing colony. Following recovery, animals were subjected to two rounds of evaluation as follows:
The animals were then returned to their housing to washout the drug over 5 to 7 days.
ECGs were acquired continuously for 6 hours. The animals were then returned to their housing to washout the drug over 5 to 7 days.
ECG analysis over 5 minutes pre-dose and 6 hours post dose consisted in was automated based on pattern recognition algorithms. The analyzed data were binned into 5-minute segments. Intervals such as PR, QRS, QT, QTc, JT and RR were analyzed automatically using AD Instruments LabChart Pro v8. The accuracy of the measurements was verified manually using digital cursors by randomly selecting 3 to 5 segments at any given time postdose. […] The frequency of arrhythmia was quantified and expressed as “% of ECG time spent in abnormal sinus rhythm over entire duration of the recording”.

For series [2], the system named is AV block. Description: Drug-induced AV block: intravenous Fingolimod and/or verapamil, without and with oral 14:0 lyso PG (ECG, PR intervals). Format: in vivo, guinea pigs. The protocol:
To test this hypothesis, guinea pigs were instrumented (subcutaneous ECG leads) and exposed to increasing intravenous doses of Fingolimod and/or verapamil, without and with an oral dose of 14:0 lyso PG. ECG signals were recorded continuously for 2 hours post-dose for the AV blockers Fingolimod and verapamil. PR intervals were measured following the infusion of Fingolimod. Measurements of PR were stopped when the P wave disconnected from the QRS complexes, indicating 3rd degree AV block.
Guinea pigs exposed to an intravenous infusion of Fingolimod alone transitioned to 1st degree AV block as of a dose of 15 μg/kg, which rapidly progressed to a Mobitz Type-1, 2nd-degree AV block at 20 μg/kg, and finally progressed to 3rd degree AV block as of a dose of 23 μg/kg.
The cohort of guinea pigs exposed to verapamil received an i.v. injection of 0.5 mg/kg, followed 60 minutes later by an intravenous infusion of Fingolimod. A 1st-degree AV block appeared at a dose of 7 μg/kg, changed to a Mobitz-Type-1 2nd degree AV block at 10 μg/kg, and transitioned to 3rd-degree dissociation between P waves and QRS complexes as of 45 μg/kg.
The third cohort of animals received an initial oral gavage of 1.0 mg/kg 14:0 lyso PG, followed 60 minutes later by an intravenous dose of 0.5 mg/kg verapamil. Sixty (60) minutes post-verapamil, Fingolimod was infused into the animals as described above. […] A Mobitz-Type-2 AV block appeared in 2 out of 6 animals with P-QRS dissociation observed at a dose of 51 μg/kg in those two animals, and at 300 μg/kg in the rest of the animals in the cohort.

Where [3] appears, read: 1 h, read-out: Protection at 1 h post dose.
Where [4] appears, read: 2 h, read-out: Protection at 2 h post dose.
[5] abbreviates: 4 h, read-out: Protection at 4 h post dose.
[6] abbreviates: 6 h, read-out: Protection at 6 h post dose.
Where [7] appears, read: test compound 2 mg/kg oral given with moxifloxacin.
The mark [8] stands for this setting: i.v. verapamil 0.5 mg/kg 60 minutes before Fingolimod infusion.
Where [9] appears, read: intravenous infusion of Fingolimod alone.

Turning to `CCCCCCCCCCCCCC(=O)OC[C@H](COP(=O)([O-])OCC(COC(C)=O)OC(C)=O)OC(=O)CCCCCCCCCCCCC.[Na+]` (stereo partly drawn) [Compound 1, Sodium (R)-2,3-bis(tetradecanoyloxy)propyl (2,3-diacetoxypropyl) Phosphate], the inhibition in vivo at 2 mg/kg in series [1] (setting [3]) was 118%; in series [1] (setting [4]), 122%; in series [1] (setting [5]) it was 100%; in series [1] (setting [6]) it was 116%. Also, the Maximal prolongation in series [1] (setting [7]) was determined as 0 ms. In series [1], this compound gave an Onset of protection of 1 h. In addition, in series [1], the “Time of maximal protection” value was found to be 2 h. Moreover, the “Duration of complete protection” value in series [1] is listed as 6 h.

For `CCCCCCCCCCCCCC(=O)OC[C@H](COP(=O)([O-])OCC(COC(=O)OCC)OC(=O)OCC)OC(=O)CCCCCCCCCCCCC.[Na+]` (stereo partly drawn) [Compound 2, Sodium 2,3-bis((ethoxycarbonyl)oxy)propyl ((R)-2,3-bis (tetra decanoyloxy)propyl) Phosphate], the inhibition in vivo at 2 mg/kg is 95% in series [1] (setting [3]), 88% in series [1] (setting [4]), 22% in series [1] (setting [5]) and 90% in series [1] (setting [6]). Besides, in series [1] (setting [7]), the Maximal prolongation is recorded as 4 ms. Further, the Onset of protection in series [1] was determined as 1 h. For the same compound, the “Time of maximal protection” value in series [1] stood at 2 h. Also, the “Duration of complete protection” value in series [1] was 4 h.

As for `CCCCCCCCCCCCCCCCCC1OCC(COP(=O)([O-])OC[C@@H](COC(=O)CCCCCCCCCCCCC)OC(=O)CCCCCCCCCCCCC)O1.[Na+]` (stereo partly drawn) [Compound 4, Sodium (R)-2,3-bis (tetradecanoyloxy)propyl ((2-heptadecyl-1,3-dioxolan-4-yl)methyl) Phosphate], the inhibition in vivo at 2 mg/kg in series [1] (setting [3]) turned out to be 95%; in series [1] (setting [4]) it was 88%; in series [1] (setting [5]) it was 22%; in series [1] (setting [6]), 90%. The compound also returned a Maximal prolongation in series [1] (setting [7]) of 8 ms. The same compound returned an Onset of protection in series [1] of 1 h. Further, the “Time of maximal protection” value in series [1] turned out to be 2 h. In addition, the “Duration of complete protection” value in series [1] is 4 h.

For the compound `CCCCCCCCCCCCCCCC1OCC(COP(=O)([O-])OC[C@@H](COC(=O)CCCCCCCCCCCCC)OC(=O)CCCCCCCCCCCCC)O1.[Na+]` (stereo partly drawn) [Compound 5, Sodium (R)-2,3-bis(tetradecanoyloxy)propyl ((2-pentadecyl-1,3-dioxolan-4-yl)methyl) Phosphate], the inhibition in vivo at 2 mg/kg is 35% in series [1] (setting [3]), 113% in series [1] (setting [4]), 126% in series [1] (setting [5]) and 176% in series [1] (setting [6]). The compound also returned a Maximal prolongation in series [1] (setting [7]) of 0 ms. For the same compound, in series [1], the Onset of protection came out at 2 h. The “Time of maximal protection” value in series [1] is 2 h. In addition, the “Duration of complete protection” value in series [1] is listed as 6 h.

Regarding `CCCCCCCCCCCCCC(=O)OC[C@H](COP(=O)([O-])OCC1COC(CCCCC)O1)OC(=O)CCCCCCCCCCCCC.[Na+]` (stereo partly drawn) [Compound 6, Sodium (R)-2,3-bis(tetradecanoyloxy)propyl ((2-pentyl-1,3-dioxolan-4-yl)methyl) Phosphate], the inhibition in vivo at 2 mg/kg in series [1] (setting [3]) came out at 74%; in series [1] (setting [4]) it was 110%; in series [1] (setting [5]), 115%; in series [1] (setting [6]), 138%. In series [1] (setting [7]), the Maximal prolongation is 3 ms. In addition, in series [1], the Onset of protection is reported as 1 h. In addition, the “Time of maximal protection” value in series [1] was 2 h. Further, in series [1], the “Duration of complete protection” value is reported as 6 h.

In the case of `CCCCCCCCCCCCCC(=O)OC[C@H](COP(=O)([O-])OCC(COC(=O)CCC)OC(=O)CCC)OC(=O)CCCCCCCCCCCCC.[Na+]` (stereo partly drawn) [Compound 7, Sodium 2,3-bis(butyryloxy)propyl ((R)-2,3-bis(tetradecanoyloxy)propyl) Phosphate], the inhibition in vivo at 2 mg/kg came to 83% in series [1] (setting [3]), 100% in series [1] (setting [4]), 119% in series [1] (setting [5]) and 147% in series [1] (setting [6]). This compound also registered a Maximal prolongation in series [1] (setting [7]) of 4 ms. This compound registered an Onset of protection in series [1] of 1 h. In addition, the “Time of maximal protection” value in series [1] is given as 2 h. In addition, in series [1], the “Duration of complete protection” value was determined as 6 h.

In the case of `CCCCCCCCCCCCCC(=O)OC[C@H](COP(=O)([O-])OCC(COC(=O)CC(C)C)OC(=O)CC(C)C)OC(=O)CCCCCCCCCCCCC.[Na+]` (stereo partly drawn) [Compound 8, Sodium 2,3-bis((3-methylbutanoyl)oxy)propyl ((R)-2,3-bis(tetradecanoyloxy)propyl) Phosphate], the inhibition in vivo at 2 mg/kg in series [1] (setting [3]) came out at 74%; in series [1] (setting [4]), 97%; in series [1] (setting [5]), 100%; in series [1] (setting [6]), 132%. This compound also yielded a Maximal prolongation in series [1] (setting [7]) of 2 ms. The compound also came in with an Onset of protection in series [1] of 1 h. Besides, the “Time of maximal protection” value in series [1] is reported as 2 h. Moreover, the “Duration of complete protection” value in series [1] was found to be 6 h.

On to `CCCCCCCCCCCCCC(=O)OC[C@H](COP(=O)([O-])OCC(COC(=O)C(C)C)OC(=O)C(C)C)OC(=O)CCCCCCCCCCCCC.[Na+]` (stereo partly drawn) [Compound 9, Sodium 2,3-bis(isobutyryloxy)propyl ((R)-2,3-bis(tetradecanoyloxy)propyl) Phosphate], for which the inhibition in vivo at 2 mg/kg in series [1] (setting [3]) came out at 91%; in series [1] (setting [4]) it was 94%; in series [1] (setting [5]), 100%; in series [1] (setting [6]), 116%. Also, the Maximal prolongation in series [1] (setting [7]) is 3 ms. In series [1], this compound gave an Onset of protection of 1 h. In addition, the “Time of maximal protection” value in series [1] amounted to 2 h. The “Duration of complete protection” value in series [1] is reported as 6 h.

On to `CCCCCCCCCCCCCC(=O)OC[C@H](COP(=O)([O][MgH])OCC(COC(=O)OCC)OC(=O)OCC)OC(=O)CCCCCCCCCCCCC` (stereo partly drawn) [Compound 10, magnesium-2,3-bis((ethoxycarbonyl)oxy)propyl((R)-2,3-bis(tetradecanoyloxy)propyl) Phosphate], for which the “Protection at 1 h post dose” value in series [1] (percent of Moxifloxacin effect, single oral 2 mg/kg test compound concomitantly with oral moxifloxacin 20 mg/kg, 1 h post dose) was found to be 83%. Further, in series [1], the Onset of protection turned out to be 1 h, the “Time of maximal protection” value is 2 h and the “Duration of complete protection” value came out at 6 h.

Take `CCCCCCCCCCCCCC(=O)OC[C@H](COP(=O)([O][MgH])OCC(COC(=O)OCC)OC(=O)OCC)OC(=O)CCCCCCCCCCCCC` (stereo partly drawn) [Compound 11, calcium-2,3-bis((ethoxycarbonyl)oxy)propyl ((R)-2,3-bis(tetradecanoyloxy)propyl) Phosphate]: the inhibition in vivo at 2 mg/kg in series [1] (1 h, read-out: Protection at 1 h post dose, percent of Moxifloxacin effect, single oral 2 mg/kg test compound concomitantly with oral moxifloxacin 20 mg/kg, 1 h post dose) came out at 83%; in series [1] (2 h, read-out: Protection at 2 h post dose, percent of Moxifloxacin effect, single oral 2 mg/kg test compound concomitantly with oral moxifloxacin 20 mg/kg, 2 h post dose), 94%; in series [1] (4 h, read-out: Protection at 4 h post dose, percent of Moxifloxacin effect, single oral 2 mg/kg test compound concomitantly with oral moxifloxacin 20 mg/kg, 4 h post dose), 91%; in series [1] (6 h, read-out: Protection at 6 h post dose, percent of Moxifloxacin effect, single oral 2 mg/kg test compound concomitantly with oral moxifloxacin 20 mg/kg, 6 h post dose) it was 116%. The compound further registered a Maximal prolongation in series [1] (test compound 2 mg/kg oral given with moxifloxacin, 2 mg/kg) of 8 ms. In series [1], this compound registered an Onset of protection of 1 h. In series [1], the “Time of maximal protection” value was 2 h. Also, the “Duration of complete protection” value in series [1] turned out to be 6 h.

In the case of `CCCCCCCCc1ccc(CCC(N)(CO)CO)cc1` [Fingolimod], in series [2] (setting [8]), the “Fingolimod dose at 1st-degree AV block” value came out at 0.007 mg/kg; the “Fingolimod dose at 3rd-degree dissociation between P waves and QRS complexes” value is 0.045 mg/kg; the “Fingolimod dose at Mobitz-Type-1 2nd degree AV block” value worked out at 0.01 mg/kg. In series [2] (setting [9]), the “Fingolimod dose at 1st degree AV block” value turned out to be 0.015 mg/kg; the “Fingolimod dose at 3rd degree AV block” value was found to be 0.023 mg/kg; the “Fingolimod dose at Mobitz Type-1, 2nd-degree AV block” value turned out to be 0.02 mg/kg.

As to `COc1c(N2C[C@@H]3CCCN[C@@H]3C2)c(F)cc2c(=O)c(C(=O)O)cn(C3CC3)c12` [Moxifloxacin, reference compound], the Maximal prolongation in series [1] (Moxifloxacin alone, column head 40 mg/kg) is 29 ms.
